Data taken from patent US8163771B2, “11 β-HSD1 modulators” (Exelixis, Inc., priority 2008, dated 2012).
pIC50: −log10 of the molar value.

Target: T1, recombinant human 11 β-HSD1 (Homo sapiens, UniProt P28845)
T1 construct: made in house; host or cells: E. coli
Test: 11 β-HSD1 SPA Assay (Scintillation Proximity Assay)
Type: biochemical
Protocol: (§1) Inhibition of 11 βHSD1 by test compounds was assessed in vitro by a Scintillation Proximity Assay (SPA). The assay was carried out in a 384-well assay plate in a total well volume of 26 μl and contained a mixture of tritiated cortisone substrate (40 nM), NADPH cofactor (1 mM), inhibitor in serial dilutions ([…] to 10 μM), and purified E. coli-expressed recombinant human 11 βHSD1 (30-100 nM) in assay buffer (50 mM HEPES, 100 mM KCl, 5 mM NaCl, and 2 mM MgCl2, pH7.4). Following mixing, the plate was incubated for 2 hours at room temperature. Reactions were stopped by addition of 30 μl of protein A YSi SPA beads (10 mg/ml) that had been pre-incubated with glycyrrhetinic acid (1 mM) and a monoclonal cortisol antibody (3 μg/ml). The plate was then incubated overnight at room temperature prior to reading on a Microbeta counter. Percent inhibition of each compound was calculated based on the background and the maximal signals. Wells that contained substrate without compound or enzyme were used as the background signal, while the wells that contained substrate and enzyme without any compound were used as the maximal signal. The calculation of the IC50 values for the inhibitors was performed by Activity Base.
as §1, with “β-HSD1” for “βHSD1”

T1 sequence (P28845 whole entry): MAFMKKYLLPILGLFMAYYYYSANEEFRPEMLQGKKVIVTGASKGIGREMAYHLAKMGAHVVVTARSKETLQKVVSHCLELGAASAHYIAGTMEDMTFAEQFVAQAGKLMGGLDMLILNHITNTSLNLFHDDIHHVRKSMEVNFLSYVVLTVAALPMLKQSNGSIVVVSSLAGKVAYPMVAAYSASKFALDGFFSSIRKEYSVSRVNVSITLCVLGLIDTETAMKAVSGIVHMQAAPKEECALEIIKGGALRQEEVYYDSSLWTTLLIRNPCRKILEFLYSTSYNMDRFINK

CC(C)(Oc1ccc(Cl)cc1F)C(=O)N[C@H]1C[C@H]2CC[C@@H](C1)N2c1ccc(C(=O)NCC(F)(F)F)cn1 [Example 105, 6-[3-endo-({2-[(4-chloro-2-fluorophenyl)oxy]-2-methylpropanoyl}amino)-8-azabicyclo[3.2.1]oct-8-yl]-N-(2,2,2-trifluoroethyl)pyridine-3-carboxamide]
pIC50: > 6.70

CC(C)(Oc1ccc(Cl)cc1Cl)C(=O)N[C@H]1C[C@H]2CC[C@@H](C1)N2c1ccc(C(=O)NCc2ccncc2)cn1 [Example 342, 6-(3-endo-{[2-(2,4-dichlorophenoxy)-2-methylpropanoyl]amino}-8-azabicyclo[3.2.1]oct-8-yl)-N-(pyridin-4-ylmethyl)pyridine-3-carboxamide]
pIC50: > 6.70

CC(C)(Oc1cc(C(C)(C)O)c(Cl)cc1F)C(=O)N[C@H]1C[C@H]2CC[C@@H](C1)N2c1ccc(C(=O)NCC(F)F)cn1 [Example 466, 6-(3-endo-(2-(4-chloro-2-fluoro-5-(2-hydroxypropan-2-yl)phenoxy)-2-methylpropanamido)-8-azabicyclo[3.2.1]octan-8-yl)-N-(2,2-difluoroethyl)nicotinamide]
pIC50: > 6.70

CC(C)(Oc1ccc(Cl)cc1C(F)(F)F)C(=O)N[C@H]1C[C@H]2CC[C@@H](C1)N2c1ccc(C(=O)NCC(F)F)cn1 [Example 343, 6-[3-endo-({2-[4-chloro-2-(trifluoromethyl)phenoxy]-2-methylpropanoyl}amino)-8-azabicyclo[3.2.1]oct-8-yl]-N-(2,2-difluoroethyl)pyridine-3-carboxamide]
pIC50: > 6.70

CC(C)c1cc(Cl)ccc1OC(C)(C)C(=O)N[C@H]1C[C@H]2CC[C@@H](C1)N2c1ccc(C(N)=O)cn1 [Example 331, 6-{3-endo-[(2-{[4-chloro-2-(1-methylethyl)phenyl]oxy}-2-methylpropanoyl)amino]-8-azabicyclo[3.2.1]oct-8-yl}pyridine-3-carboxamide]
pIC50: > 6.70

CC(C)(Oc1ccc(Cl)cc1C(F)F)C(=O)N[C@H]1C[C@H]2CC[C@@H](C1)N2c1ccc(C(=O)Nc2ccon2)cn1 [Example 404, 6-(3-endo-(2-(4-chloro-2-(difluoromethyl)phenoxy)-2-methylpropanamido)-8-azabicyclo[3.2.1]octan-8-yl)-N-(isoxazol-3-yl)nicotinamide]
pIC50: > 6.70

NC(=O)c1ccc(N2[C@@H]3CC[C@H]2C[C@@H](NC(=O)C2(c4ccc(F)c(F)c4)CC2)C3)nc1 [Example 141, 6-[3-endo-({[1-(3,4-difluorophenyl)cyclopropyl]carbonyl}amino)-8-azabicyclo[3.2.1]oct-8-yl]pyridine-3-carboxamide]
pIC50: > 6.70

O=C(NCC(F)(F)F)c1ccc(N2[C@@H]3CC[C@H]2C[C@@H](NC(=O)C2(c4cccc(Cl)c4)CC2)C3)nc1 [Example 122, 6-[3-endo-({[1-(3-chlorophenyl)cyclopropyl]carbonyl}amino)-8-azabicyclo[3.2.1]oct-8-yl]-N-(2,2,2-trifluoroethyl)pyridine-3-carboxamide]
pIC50: > 6.70

CC(=O)Nc1ccc(N2[C@@H]3CC[C@H]2C[C@@H](NC(=O)C(C)(C)Oc2ccc(Cl)cc2Cl)C3)cc1 [Example 115, N-{8-[4-(acetylamino)phenyl]-8-azabicyclo[3.2.1]oct-3-endo-yl}-2-[(2,4-dichlorophenyl)oxy]-2-methylpropanamide]
pIC50: > 6.70

CC(C)(Oc1cc(C(C)(C)O)c(Cl)cc1Cl)C(=O)N[C@H]1C[C@H]2CC[C@@H](C1)N2c1ccc(C(=O)NCC(F)F)c[n+]1[O-] [Example 479, 6-[3-endo-({2-[2,4-dichloro-5-(2-hydroxypropan-2-yl)phenoxy]-2-methylpropanoyl}amino)-8-azabicyclo[3.2.1]oct-8-yl]-N-(2,2-difluoroethyl)pyridine-3-carboxamide 1-oxide]
pIC50: > 5.70

CC(C)(Oc1ccc(F)c(Cl)c1Cl)C(=O)N[C@H]1C[C@H]2CC[C@@H](C1)N2c1ccc(C(N)=O)cn1 [Example 97, 6-[3-endo-({2-[(2,3-dichloro-4-fluorophenyl)oxy]-2-methylpropanoyl}amino)-8-azabicyclo[3.2.1]oct-8-yl]pyridine-3-carboxamide]
pIC50: > 6.70
